Legend:
Type in all cases: cell-based
Ba/F3 parental cells = assay: Cell growth inhibitory activity assay (CellTiter-Glo), Ba/F3 parental cells; conditions: Mus musculus, BaF3, 72 h, CTG cell viability, read-out: IC50 Ba/F3 BCR-ABL1 Parental
Procedure, shortened: (§1)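 Growth inhibition is measured in engineered Ba/F3 cells carrying mutant human BCR-ABL1 and in parental Ba/F3. Compounds in dilution series are applied for 72 h, then cellular ATP is quantified with CellTiter-Glo, normalised using a T0 baseline plate, and IC50 derived by nonlinear regression.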

Ba/F3 BCR-ABL1 T315I = target: T1, Ba/F3 BCR-ABL1 T315I (Homo sapiens, UniProt P00519+P11274, T315I); assay: Cell growth inhibitory activity assay (CellTiter-Glo), Ba/F3 BCR-ABL1 T315I cells; conditions: 72 h, CTG cell viability
T1 construct: BCR (N-terminal fusion partner of the oncoprotein); expressed in transfected cells; host or cells: Ba/F3 (lentiviral transduction, monoclonal line)
Procedure, shortened: as §1

K562 cells = assay: Cell growth inhibitory activity assay (CellTiter-Glo), K562 cells; conditions: Homo sapiens, 72 h, CTG cell viability
Procedure, shortened: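 Growth inhibition of human K562 cells, sourced from Nanjing Kebai (CBP60529), was assessed with Promega's CellTiter-Glo kit, which measures viability through ATP quantification. Log-phase cells went into the inner wells of 96-well plates, with PBS in edge wells, incubated overnight at 37 °C and 5% CO2, then exposed to serially diluted compound for 72 h.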

Ba/F3 BCR-ABL1 WT = target: T2, Ba/F3 BCR-ABL1 WT (Homo sapiens, UniProt P00519+P11274); assay: Cell growth inhibitory activity assay (CellTiter-Glo), Ba/F3 BCR-ABL1 WT cells; conditions: 72 h, CTG cell viability
T2 construct: BCR (N-terminal fusion partner of the oncoprotein); expressed in transfected cells; host or cells: Ba/F3 (lentiviral transduction, monoclonal line)
Procedure, shortened: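 Compound dilutions applied for 72 h (37 °C, 5% CO2) to overnight-plated Ba/F3 cells, parental or engineered to express WT/mutant BCR-ABL1. ATP-based CellTiter-Glo luminescence read, referenced to day-0 viability and 0.5% DMSO wells; IC50 fitted by four-parameter logistic curve.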

SMILES	IC50 (K562 cells) [nM]	IC50 (Ba/F3 parental cells) [nM]	IC50 (Ba/F3 BCR-ABL1 T315I) [nM]	IC50 (Ba/F3 BCR-ABL1 WT) [nM]
C[C@@H]1CCOc2nc3cc(C(=O)Nc4ccc(OC(F)(F)Cl)cc4)cc(-c4cnc5c(c4)C(=O)N(C)C5)c3n21 [T-24, (R)-N-(4-(chlorodifluoromethoxy)phenyl)-4-methyl-6-(6-methyl-5-oxo-6,7-dihydro-5H-pyrrolo[3,4-b]pyridin-3-yl)-3,4-dihydro-2H-benzo[4,5]imidazo[2,1-b][1,3]oxazine-8-carboxamide]	≤ 5	> 1000	50 to 1000	5 to 50
O=C(Nc1ccc(OC(F)(F)Cl)cc1)c1cnc(N2CC[C@@H](F)C2)c(-c2cnc3c(c2)-c2nn(-c4ncc(F)cn4)cc2C3F)c1 (stereo partly drawn) [T-130, N-(4-(chlorodifluoromethoxy)phenyl)-5-(4-fluoro-2-(5-fluoropyrimidin-2-yl)-2,4-dihydropyrazolo[3',4':3,4]cyclopenta[1,2-b]pyridin-7-yl)-6-((R)-3-fluoropyrrolidin-1-yl)nicotinamide]	≤ 5	> 1000	≤ 5	≤ 5
O=C(Nc1ccc(OC(F)(F)Cl)cc1)c1cc2c(c(-c3cnc4c(c3)-c3nn(-c5ncc(F)cn5)cc3C4)c1)C1(CCCCC1)C(=O)N2 [T-127, N-(4-(chlorodifluoromethoxy)phenyl)-4'-(2-(5-fluoropyrimidin-2-yl)-2,4-dihydropyrazolo[3',4':3,4]cyclopenta[1,2-b]pyridin-7-vl)-2'-oxospiro[cyclohexane-1,3'-indoline]-6'-carboxamide]	≤ 5	> 1000	≤ 5	≤ 5
CC(C)n1cnc2cc(C(=O)Nc3ccc(OC(F)(F)Cl)cc3)cc(-c3cnc4c(c3)-c3n[nH]cc3C4)c21 [T-119, N-(4-(chlorodifluoromethoxy)phenyl)-7-(2,4-dihvdropyrazolo[3',4':3,4]cyclopenta[1,2-b]pyridin-7-yl)-1-isopropyl-1H-benzo[d]imidazole-5-carboxamide]	≤ 5	> 1000	5 to 50	≤ 5
[2H]C([2H])([2H])n1cc2c(n1)-c1cc(-c3cc(C(=O)Nc4ccc(OC(F)(F)Cl)cc4)cc4nc5n(c34)[C@H](C)COC5)cnc1C2 [T-53, (R)-N-(4-(chlorodifluoromethoxv)phenyl)-4-methyl-6-(2-(methyl-d3)-2,4-dihydropyrazolo[3',4':3,4]cyclopenta[1,2-b]pyridin-7-yl)-3,4-dihydro-1H-benzo[4,5]imidazo[2,1-c][1,4]oxazine-8-carboxamide]	≤ 5	> 1000	≤ 5	≤ 5
C[C@@H]1COCc2nc3cc(C(=O)Nc4ccc(OC(F)(F)Cl)cc4)cc(-c4cnc5c(c4)-c4nn(-c6ncc7cccnc7n6)cc4C5)c3n21 [T-86, (R)-N-(4-(chlorodifluoromethoxy)phenyl)-4-methyl-6-(2-(pyrido[2,3-d]pyrimidin-2-yl)-2,4-dihydropyrazolo[3',4':3,4]cyclopenta[1,2-b]pyridin-7-yl)-3,4-dihydro-1H-benzo[4,5]imidazo[2,1-c][1,4]oxazine-8-carboxamide]	≤ 5	> 1000	≤ 5	≤ 5
CC(C)c1cnc(-n2cc3c(n2)-c2cc(-c4cc(C(=O)Nc5ccc(OC(F)(F)Cl)cc5)cc5nc6n(c45)[C@H](C)COC6)cnc2C3)nc1 [T-101, (R)-N-(4-(chlorodifluoromethoxy)phenyl)-6-(2-(5-isopropyloyrimidin-2-yl)-2,4-dihydropyrazolo[3',4':3,4]cyclooenta[1,2-b]pyridin-7-yl)-4-methyl-3,4-dihydro-1H-benzo[4,5]imidazo[2,1-c][1,4]oxazine-8-carboxamide]	≤ 5	> 1000	≤ 5	≤ 5
O=C(Nc1ccc(OC(F)(F)Cl)cc1)c1cnc(N2CC[C@@H](F)C2)c(-c2cnc3c(c2)-c2c(cnn2-c2ncc(F)cn2)C3F)c1 (stereo partly drawn) [T-131, N-(4-(chlorodifluoromethoxy)phenyl)-5-(4-fluoro-1-(5-fluoropyrimidin-2-yl)-1,4-dihydrepyrazolo[3',4':3,4]cyclopenta[1,2-b]pyridin-7-yl)-6-((R)-3-fluoropyrrolidin-1-yl)nicotinamide]	5 to 50	> 1000	50 to 1000	50 to 1000
C[C@@H]1COCc2nc3cc(C(=O)Nc4ccc(OC(F)(F)Cl)cc4)cc(-c4cnc5c(c4)-c4nn(-c6ccncc6)cc4C5)c3n21 [T-64]	≤ 5	> 1000	> 1000	≤ 5
CC(C)n1cnc2cc(C(=O)Nc3ccc(OC(F)(F)Cl)cc3)cc(-c3cnc4c(c3)-c3nn(-c5ncccn5)cc3C4)c21 [T-120, N-(4-(chlorodifluoromethoxy)phenyl)-1-isopropyl-7-(2-(pyrimidin-2-yl)-2,4-dihydropyrazolo[3',4':3,4]cyclopenta[1,2-b]pyridin-7-yl)-1H-benzo[d]imidazole-5-carboxamide]	≤ 5	> 1000	≤ 5	≤ 5

Now from value to molecule, other results behind:

IC50 (K562 cells) [nM]	SMILES	IC50 (Ba/F3 parental cells) [nM]	IC50 (Ba/F3 BCR-ABL1 T315I) [nM]	IC50 (Ba/F3 BCR-ABL1 WT) [nM]
≤ 5	CCC(=O)n1cc2c(n1)-c1cc(-c3cc(C(=O)Nc4ccc(OC(F)(F)Cl)cc4)cc4nc5n(c34)[C@H](C)COC5)cnc1C2 [T-45, (R)-N-(4-(chlorodifluoromethoxy)phenyl)-4-methyl-6-(2-propionyl-2,4-dihydropyrazolo[3',4':3,4]cyclopenta[1,2-b]pyridin-7-yl)-3,4-dihydro-1H-benzo[4,5]imidazo[2,1-c][1,4]oxazine-8-carboxamide]	> 1000	≤ 5	≤ 5
≤ 5	N#Cc1cnc(-n2cc3c(n2)-c2cc(-c4cc(C(=O)Nc5ccc(OC(F)(F)Cl)cc5)c(N)nc4N4CC[C@@H](F)C4)cnc2C3)nc1 [T-134, (R)-2-amino-N-(4-(chlorodifluoromethoxy)phenyl)-5-(2-(5-cyanopyrimidin-2-yl)-2,4-dihydropyrazolo[3',4':3,4]cyclooenta[1,2-b]pyridin-7-yl)-6-(3-fluoropyrrolidin-1-yl)nicotinamide]	50 to 1000	50 to 1000	≤ 5
≤ 5	O=C(Nc1ccc(OC(F)(F)Cl)cc1)c1cnc(N2CC[C@@H](F)C2)c(-c2cnc3c(c2)-c2nn(-c4ncc(N5CC[C@H](F)C5)cn4)cc2C3)c1 [T-55, N-(4-(chlorodifluoromethoxy)phenyl)-6-((R)-3-fluoropyrrolidin-1-yl)-5-(2-(5-((S)-3-fluoropyrrolidin-1-yl)pyrimidin-2-yl)-2,4-dihydropyrazolo[3',4':3,4]cyclopenta[1,2-b]pyridin-7-yl)nicotinamide]	> 1000	5 to 50	≤ 5
≤ 5	C[C@@H]1COCc2nc3cc(C(=O)Nc4ccc(OC(F)(F)Cl)cc4)cc(-c4cnc5c(c4)-c4nn(-c6cccnc6)cc4C5)c3n21 [T-63]	> 1000	> 1000	≤ 5
≤ 5	O=C(Nc1ccc(OC(F)(F)Cl)cc1)c1cnc(N2CC[C@@H](F)C2)c(-c2cnc3c(c2)-c2c(cnn2-c2ncc(F)cn2)C3)c1 [T-6-B, (R)-N-(4-(chlorodifluoromethoxy)phenyl)-5-(1-(5-fluoropyrimidin-2-yl)-1,4-dihydropyrazolo[3',4':3,4]cyclopenta[1,2-b]pyridin-7-yl)-6-(3-fluoropyrrolidin-1-yl)nicotinamide]	> 1000	5 to 50	≤ 5
≤ 5	C[C@@H]1COCc2nc3cc(C(=O)Nc4ccc(OC(F)(F)Cl)cc4)cc(-c4cnc5c(c4)-c4nn(-c6ncc(C(F)(F)F)cn6)cc4C5)c3n21 [T-79, (R)-N-(4-(chlorodifluoromethoxy)phenyl)-4-methyl-6-(2-(5-(trifluoromethyl)pyrimidin-2-yl)-2,4-dihydropyrazolo[3',4':3,4]cyclopenta[1,2-b]pyridin-7-yl)-3,4-dihydro-1H-benzo[4,5]imidazo[2,1-c][1,4]oxazine-8-carboxamide]	> 1000	≤ 5	≤ 5
≤ 5	C[C@@H]1COCc2nc3cc(C(=O)Nc4ccc(OC(F)(F)Cl)cc4)cc(-c4ccc5c(c4)C(=O)N(C)C5=O)c3n21 [T-62, (R)-N-(4-(chlorodifluoromethoxy)phenyl)-4-methyl-6-(2-methyl-1,3-dioxoisoindolin-5-yl)-3,4-dihydro-1H-benzo[4,5]imidazo[2,1-c][1,4]oxazine-8-carboxamide]	> 1000	50 to 1000	5 to 50
≤ 5	C[C@@H]1COCc2nc3cc(C(=O)Nc4ccc(OC(F)(F)Cl)cc4)cc(-c4ccc5c(c4)-c4ncsc4C5)c3n21 [T-113, (R)-N-(4-(chlorodifluoromethoxy)phenyl)-6-(8H-indeno[1,2-d]thiazol-5-yl)-4-methyl-3,4-dihydro-1H-benzo[4,5]imidazo[2,1-c][1,4]oxazine-8-carboxamide]	> 1000	5 to 50	≤ 5
≤ 5	O=C(Nc1ccc(OC(F)(F)Cl)cc1)c1cnc(N2CC[C@@H](F)C2)c(-c2cnc3c(c2)-c2nn(-c4ncc5ccsc5n4)cc2C3)c1 [T-44, (R)-N-(4-(chlorodifluoromethoxy)phenyl)-6-(3-fluoropyrrolidin-1-yl)-5-(2-(thieno[2,3-d]pyrimidin-2-yl)-2,4-dihydropyrazolo[3',4':3,4]cyclopenta[1,2-b]pyridin-7-yl)nicotinamide]	> 1000	≤ 5	≤ 5
